# Source: PMC8689225, “Cardiac ryanodine receptor N-terminal region biosensors identify novel inhibitors via FRET-based high-throughput screening” (The Journal of Biological Chemistry, 2021)
# Like-named read-outs stand apart in the source and are kept apart here.
# Columns and labels:
# mouse RyR2 NTR = target: T1, mouse RyR2 NTR (Mus musculus, UniProt E9Q401, K30C/K441C, form not given); experiment: FLT-FRET dose-response with AC-NTR biosensor; format: binding; conditions: for decrease of donor-only FLT as share of the FLT change in the donor-acceptor sample: interference control, designated interfering compounds; for ΔFLT / saturation of FRET dose-response: 0 to 100 μM; for ΔFLT: CPNQ/corbadrine decrease FLT, FA/tacrolimus increase FLT; for saturation of FRET dose-response: decreased FLT
# T1 sequence (E9Q401 1-547 K30C/K441C): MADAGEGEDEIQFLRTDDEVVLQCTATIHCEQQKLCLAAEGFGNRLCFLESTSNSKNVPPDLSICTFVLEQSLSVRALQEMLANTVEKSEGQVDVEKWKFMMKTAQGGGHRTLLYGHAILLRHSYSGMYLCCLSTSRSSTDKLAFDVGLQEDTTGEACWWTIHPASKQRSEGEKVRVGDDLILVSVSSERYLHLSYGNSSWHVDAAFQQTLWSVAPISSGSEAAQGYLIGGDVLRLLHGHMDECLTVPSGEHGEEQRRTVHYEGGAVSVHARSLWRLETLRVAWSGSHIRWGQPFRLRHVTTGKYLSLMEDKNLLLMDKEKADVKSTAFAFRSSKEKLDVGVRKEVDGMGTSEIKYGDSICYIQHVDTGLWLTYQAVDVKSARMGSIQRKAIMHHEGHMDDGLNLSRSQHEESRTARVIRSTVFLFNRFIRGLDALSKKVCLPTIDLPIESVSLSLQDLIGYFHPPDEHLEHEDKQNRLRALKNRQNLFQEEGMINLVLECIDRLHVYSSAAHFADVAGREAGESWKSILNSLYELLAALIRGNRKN
# Text: The NTR of mouse RyR2 (residues 1–547) was cloned and expressed as previously described ([27]). The DNA construct contains a 6×His tag, a maltose-binding protein (MBP) tag, and a tobacco etch virus (TEV) protease cleavage site. The seven native solvent-exposed cysteine residues were substituted with alanine residues, and two constructs were engineered with Cys substitutions at surface residues R383 and K441 (in the B and C domains, respectively; termed BC) and at K30 and K441 (in the A and C domains, respectively; termed AC) for labeling with spectroscopic probes such as appropriate donor–acceptor fluorophores for FRET (for the purpose of this report, these are considered the WT forms of AC and BC). A variant of the BC construct corresponding to the disease-associated mutant (R420Q) was also prepared. For this site-directed mutagenesis work, we used the QuikChange (Stratagene) and Phusion High-Fidelity PCR (Thermo Fisher Scientific) kits. The WT-NTR, R420Q-NTR, AC- and BC-NTR, AC- and BC-R420Q-NTR protein constructs were expressed in Escherichia coli Rosetta (DE3) pLacI cells at 18 °C and purified with a protocol adapted from previously published work ([26]). An amylose column was first applied after the cells were lysed by ultrasonication. The protein in the elution was then cleaved using TEV protease. The cleaved crude protein went through the second amylose column to separate from the MBP and then followed by a Superdex S-200 size exclusion column in a buffer consisting of 250 mM KCl, 10 mM HEPES, and 14 mM β-mercaptoethanol (pH 7.4). The NTR protein (3 μM) was then incubated in 10 mM HEPES, 250 mM KCl (pH 7.4, 2 h, 21 °C) with the fluorescent probes Alexa Fluor 488 maleimide (AF488, donor; 40 μM) and Alexa Fluor 568 maleimide (AF568, acceptor; 60 μM). The maleimide of the dye reacts with the thiols the Cys residues engineered into NTR, forming a covalently labeled protein. The Alexa dyes were added last to the reaction mixture, from 10 mM DMSO stock solutions. This reaction is not selective to one site (K30C or K441C), and we anticipate that there is a mixed population with K30C or K441C labeled with either AF488 (donor) or AF568 (acceptor). We focused on maximizing the fraction containing donor–acceptor pairs, thus maximizing FRET efficiency and the precision for detecting a change in structure as an indication that a compound interacts with the NTR biosensor. The labeling efficiency was determined by comparing the molar concentration of the bound dye, determined from UV-Vis absorbance, to the protein concentration, determined from gel densitometry. Essentially complete labeling was confirmed from electrospray ionization mass spectrometry. CD spectra of the WT-NTR and mutant R420Q-NTR constructs before and after labeling were recorded using a JASCO J-815 CD spectrometer (JASCO), confirming similar folding (Fig. S1).
# The 1536-well assay plates were prepared as described in our previous reports ([21]). The LOPAC (Sigma-Aldrich) collection received in 96-well plates was reformatted into 384-well polypropylene intermediate plates (Greiner Bio-One) using a multichannel liquid handler, BioMek FX (Beckman Coulter), then transferred to 384-well Echo Qualified source plates (Labcyte Inc). Assay plates were prepared as previously described ([20]). On screening days, these plates were thawed out and were loaded with labeled NTR (5 μl, 20 nM final concentration) using a Multidrop Combi automated sample dispenser.
# HTS measurements were conducted in a prototype top-read FLT plate reader (FLT-PR, Fluorescence Innovations, Inc), which reads each 1536-well plate in ∼3 min ([63], [64]). AF488 donor fluorescence was excited with a 473 nm microchip laser from Concepts Research Corporation, and the emission signal was split into two channels by a dichroic mirror and acquired with 517 ± 10 nm (channel 1) and 535 ± 7 nm band-pass filters (channel 2) (Semrock). […]
# RyR1 = target: T2, RyR1 (Sus scrofa, UniProt P16960); experiment: [3H]ryanodine binding to skeletal SR (HSR) vesicles; format: biochemical, pig; conditions: for EC50: Table S4, read-out: EC50, [3H]ryanodine binding, skeletal HSR; for maximum inhibitory effect on [3H]ryanodine binding / effect on [3H]ryanodine binding to RyR1: skeletal SR; for maximum inhibitory effect on [3H]ryanodine binding: 30 nM Ca2+; for effect on [3H]ryanodine binding to RyR1: 30 μM Ca2+
# T2 construct: from tissue; host or cells: porcine longissimus dorsi muscle, heavy SR vesicles
# Protocol: (§1) Crude sarcoplasmic reticulum membrane vesicles were isolated from porcine longissimus dorsi muscle and porcine cardiac left ventricle tissue by differential centrifugation of homogenized tissue, as established previously ([65]). Skeletal heavy SR (HSR) vesicles, which are enriched with RyR1, were isolated by fractionation of crude skeletal SR vesicles using a discontinuous sucrose gradient, in accordance with our published work ([65]). All vesicles were flash-frozen and stored at −80 °C.
# (§2) In 96-well plates, skeletal SR membranes (HSR, 1 mg/ml) and cardiac SR membranes (CSR, 3 mg/ml) were preincubated with 1% DMSO or hit compound for 30 min at 22 °C in a solution containing 150 mM KCl, 5 mM GSH, 1 μg/ml Aprotinin/Leupeptin, 1 mM EGTA, and 65 μM or 1.02 mM CaCl2 (as determined by MaxChelator to yield 30 nM or 30 μM of free Ca^2+, respectively), 0.1 mg/ml of BSA, and 20 mM K-PIPES (pH 7.0). Nonspecific [^3H]ryanodine binding to SR was assessed by addition of 40 μM nonradioactively labeled ryanodine. Maximal [^3H]ryanodine binding was assessed by addition of 5 mM adenylyl-imidodiphosphate (AMP-PNP), and in the case of CSR, 20 mM caffeine was added. These control samples were each loaded over four wells per plate. Binding of [^3H]ryanodine (7.5 and 10 nM for CSR and HSR, respectively) was determined following a 3 h incubation at 37 °C and filtration through grade GF/B glass microfiber filters (Brandel Inc) using a Brandel Harvester. In 4 ml of Ecolite scintillation cocktail (MP biomedicals), [^3H]ryanodine retained on the filter was counted using a Beckman LS6000 scintillation counter.
# RyR2 = target: T3, RyR2 (Sus scrofa, UniProt A0A5G2R1W3); experiment: [3H]ryanodine binding to cardiac SR (CSR) vesicles; format: biochemical, pig; conditions: for EC50: Table S4, read-out: EC50, [3H]ryanodine binding, cardiac SR; for effect on [3H]ryanodine binding to RyR2: cardiac SR
# T3 construct: from tissue; host or cells: porcine cardiac left ventricle, crude SR vesicles
# T3 sequence (A0A5G2R1W3 20-4900): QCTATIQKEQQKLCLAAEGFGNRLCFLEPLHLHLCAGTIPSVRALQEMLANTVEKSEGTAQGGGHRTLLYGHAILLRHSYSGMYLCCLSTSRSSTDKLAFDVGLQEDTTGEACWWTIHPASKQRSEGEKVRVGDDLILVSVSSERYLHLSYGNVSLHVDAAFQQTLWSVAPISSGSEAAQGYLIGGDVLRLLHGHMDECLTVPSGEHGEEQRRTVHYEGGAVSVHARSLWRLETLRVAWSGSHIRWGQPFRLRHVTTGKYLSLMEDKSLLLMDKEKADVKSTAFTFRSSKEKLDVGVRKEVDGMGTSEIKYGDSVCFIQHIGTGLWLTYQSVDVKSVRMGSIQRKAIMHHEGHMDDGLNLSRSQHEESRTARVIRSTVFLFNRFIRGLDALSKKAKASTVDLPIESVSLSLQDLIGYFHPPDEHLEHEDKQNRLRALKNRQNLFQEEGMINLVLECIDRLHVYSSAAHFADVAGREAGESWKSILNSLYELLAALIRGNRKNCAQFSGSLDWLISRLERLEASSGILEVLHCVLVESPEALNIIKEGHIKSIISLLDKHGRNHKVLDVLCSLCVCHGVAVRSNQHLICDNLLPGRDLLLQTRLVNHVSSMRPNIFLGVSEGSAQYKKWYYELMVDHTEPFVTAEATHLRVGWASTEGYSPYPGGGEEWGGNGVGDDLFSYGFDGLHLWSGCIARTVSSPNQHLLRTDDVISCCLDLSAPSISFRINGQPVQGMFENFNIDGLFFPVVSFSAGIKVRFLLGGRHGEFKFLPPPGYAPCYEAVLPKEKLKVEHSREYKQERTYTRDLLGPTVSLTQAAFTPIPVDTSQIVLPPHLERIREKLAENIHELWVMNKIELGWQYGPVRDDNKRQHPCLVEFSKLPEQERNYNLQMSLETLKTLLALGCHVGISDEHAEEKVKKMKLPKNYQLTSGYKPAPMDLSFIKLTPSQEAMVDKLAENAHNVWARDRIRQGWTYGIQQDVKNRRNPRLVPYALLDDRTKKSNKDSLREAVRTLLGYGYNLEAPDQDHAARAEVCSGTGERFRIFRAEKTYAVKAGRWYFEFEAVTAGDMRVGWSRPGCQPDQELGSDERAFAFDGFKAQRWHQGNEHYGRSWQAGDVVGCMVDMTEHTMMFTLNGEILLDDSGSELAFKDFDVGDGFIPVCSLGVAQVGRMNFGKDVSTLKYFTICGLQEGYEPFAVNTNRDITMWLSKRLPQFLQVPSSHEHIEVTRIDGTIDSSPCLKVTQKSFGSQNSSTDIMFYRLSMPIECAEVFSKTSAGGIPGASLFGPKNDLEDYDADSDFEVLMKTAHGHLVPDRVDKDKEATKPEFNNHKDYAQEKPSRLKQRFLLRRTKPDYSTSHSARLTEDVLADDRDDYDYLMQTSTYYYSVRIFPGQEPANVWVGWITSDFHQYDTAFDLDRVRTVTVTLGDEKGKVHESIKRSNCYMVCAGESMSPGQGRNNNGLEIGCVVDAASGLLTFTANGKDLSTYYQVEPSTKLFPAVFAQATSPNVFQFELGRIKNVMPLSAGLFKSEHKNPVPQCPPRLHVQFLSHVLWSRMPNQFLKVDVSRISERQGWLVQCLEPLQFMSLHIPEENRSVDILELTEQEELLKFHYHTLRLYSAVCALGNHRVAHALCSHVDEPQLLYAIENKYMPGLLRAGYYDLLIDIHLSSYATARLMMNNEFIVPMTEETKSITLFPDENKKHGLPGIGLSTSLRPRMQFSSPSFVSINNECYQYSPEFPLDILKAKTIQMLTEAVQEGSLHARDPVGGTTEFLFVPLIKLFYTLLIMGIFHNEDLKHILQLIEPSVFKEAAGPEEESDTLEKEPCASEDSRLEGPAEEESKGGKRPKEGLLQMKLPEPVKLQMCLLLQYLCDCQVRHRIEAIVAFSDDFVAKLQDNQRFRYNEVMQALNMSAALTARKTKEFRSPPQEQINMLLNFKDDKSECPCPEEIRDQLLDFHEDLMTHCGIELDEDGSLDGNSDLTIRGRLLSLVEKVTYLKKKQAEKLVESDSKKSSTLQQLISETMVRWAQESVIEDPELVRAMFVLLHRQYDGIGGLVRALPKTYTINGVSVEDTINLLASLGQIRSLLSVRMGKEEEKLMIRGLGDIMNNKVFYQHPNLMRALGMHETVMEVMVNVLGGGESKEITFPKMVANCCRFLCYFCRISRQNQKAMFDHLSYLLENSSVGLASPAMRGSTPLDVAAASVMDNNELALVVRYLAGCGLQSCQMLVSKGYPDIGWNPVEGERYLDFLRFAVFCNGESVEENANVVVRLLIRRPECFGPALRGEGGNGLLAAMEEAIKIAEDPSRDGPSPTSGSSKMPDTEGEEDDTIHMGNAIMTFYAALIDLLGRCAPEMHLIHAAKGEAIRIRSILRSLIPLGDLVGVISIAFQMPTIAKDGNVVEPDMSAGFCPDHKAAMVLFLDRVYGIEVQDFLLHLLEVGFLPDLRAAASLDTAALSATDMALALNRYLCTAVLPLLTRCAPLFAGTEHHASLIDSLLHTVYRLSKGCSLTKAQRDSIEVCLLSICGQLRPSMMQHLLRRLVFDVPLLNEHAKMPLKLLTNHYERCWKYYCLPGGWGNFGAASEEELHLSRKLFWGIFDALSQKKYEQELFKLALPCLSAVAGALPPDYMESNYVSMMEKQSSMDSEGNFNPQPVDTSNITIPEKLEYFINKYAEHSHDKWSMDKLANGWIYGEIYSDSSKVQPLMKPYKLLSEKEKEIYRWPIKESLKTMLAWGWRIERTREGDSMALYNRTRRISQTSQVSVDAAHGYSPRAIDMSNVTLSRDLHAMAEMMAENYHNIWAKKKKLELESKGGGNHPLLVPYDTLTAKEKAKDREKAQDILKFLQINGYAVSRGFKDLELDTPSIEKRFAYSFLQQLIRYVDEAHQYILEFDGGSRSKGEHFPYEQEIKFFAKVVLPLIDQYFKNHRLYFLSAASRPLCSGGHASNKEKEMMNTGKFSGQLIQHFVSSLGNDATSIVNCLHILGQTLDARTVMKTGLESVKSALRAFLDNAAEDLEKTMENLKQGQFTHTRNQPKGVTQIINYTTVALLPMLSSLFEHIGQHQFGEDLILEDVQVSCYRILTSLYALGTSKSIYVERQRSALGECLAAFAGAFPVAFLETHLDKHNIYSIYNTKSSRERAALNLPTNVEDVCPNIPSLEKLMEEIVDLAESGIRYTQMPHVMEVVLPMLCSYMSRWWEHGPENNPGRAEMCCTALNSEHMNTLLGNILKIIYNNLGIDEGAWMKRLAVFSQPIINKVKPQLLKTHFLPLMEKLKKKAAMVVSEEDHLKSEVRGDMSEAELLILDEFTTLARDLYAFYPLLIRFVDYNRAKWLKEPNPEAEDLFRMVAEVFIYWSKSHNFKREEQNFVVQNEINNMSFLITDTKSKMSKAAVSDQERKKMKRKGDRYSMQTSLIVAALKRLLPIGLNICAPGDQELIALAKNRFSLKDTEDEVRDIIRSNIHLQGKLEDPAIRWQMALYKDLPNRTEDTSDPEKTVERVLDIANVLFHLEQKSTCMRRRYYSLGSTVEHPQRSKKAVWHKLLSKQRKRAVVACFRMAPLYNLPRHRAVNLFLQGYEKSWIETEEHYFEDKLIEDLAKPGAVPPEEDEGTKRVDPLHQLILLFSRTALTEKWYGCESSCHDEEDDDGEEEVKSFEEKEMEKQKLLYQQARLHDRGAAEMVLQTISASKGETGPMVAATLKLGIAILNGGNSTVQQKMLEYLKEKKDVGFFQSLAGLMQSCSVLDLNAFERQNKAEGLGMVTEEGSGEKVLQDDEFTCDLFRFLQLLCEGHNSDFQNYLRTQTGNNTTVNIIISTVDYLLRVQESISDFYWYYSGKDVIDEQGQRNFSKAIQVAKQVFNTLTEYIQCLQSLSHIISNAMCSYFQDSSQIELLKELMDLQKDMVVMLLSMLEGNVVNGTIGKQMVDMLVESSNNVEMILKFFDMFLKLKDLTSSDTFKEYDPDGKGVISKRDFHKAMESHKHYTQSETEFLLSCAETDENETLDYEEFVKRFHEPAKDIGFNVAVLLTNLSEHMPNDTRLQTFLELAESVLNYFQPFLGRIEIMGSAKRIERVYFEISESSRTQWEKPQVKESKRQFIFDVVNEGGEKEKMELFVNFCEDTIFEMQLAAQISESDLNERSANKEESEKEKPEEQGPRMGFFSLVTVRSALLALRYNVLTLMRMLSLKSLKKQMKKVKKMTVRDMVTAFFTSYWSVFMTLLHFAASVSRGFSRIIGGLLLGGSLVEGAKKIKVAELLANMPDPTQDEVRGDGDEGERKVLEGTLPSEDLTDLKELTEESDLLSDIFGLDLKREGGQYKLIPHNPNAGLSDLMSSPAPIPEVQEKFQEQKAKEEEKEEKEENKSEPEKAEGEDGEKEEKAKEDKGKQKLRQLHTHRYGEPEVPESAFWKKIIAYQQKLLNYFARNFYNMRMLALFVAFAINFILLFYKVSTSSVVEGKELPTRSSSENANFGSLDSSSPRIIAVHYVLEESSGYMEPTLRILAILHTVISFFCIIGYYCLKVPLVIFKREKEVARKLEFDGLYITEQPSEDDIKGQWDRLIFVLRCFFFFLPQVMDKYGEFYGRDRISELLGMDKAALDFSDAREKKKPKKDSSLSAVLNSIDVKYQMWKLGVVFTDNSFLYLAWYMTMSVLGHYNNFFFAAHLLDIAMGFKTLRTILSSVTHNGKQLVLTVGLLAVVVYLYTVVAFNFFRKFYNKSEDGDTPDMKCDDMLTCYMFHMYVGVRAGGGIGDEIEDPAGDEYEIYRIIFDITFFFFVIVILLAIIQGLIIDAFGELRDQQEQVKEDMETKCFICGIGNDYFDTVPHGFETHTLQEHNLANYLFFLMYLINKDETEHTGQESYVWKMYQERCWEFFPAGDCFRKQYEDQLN
# Protocol: as §1, §2
# RyR = test system: RyR; parameters: method as in PMID 27760856, PMID 32019969; conditions: cited from earlier work
# [1] = AC-NTR biosensor, Hill fit, Table S4, read-out: EC50, FRET dose-response
compound,measurement,setting,value
COc1ccc(/C=C/c2nc(NCCCN(C)C)c3ccccc3n2)cc1 [CP-31398],decrease of donor-only FLT as share of the FLT change in the donor-acceptor sample,mouse RyR2 NTR,> 50%
"O=C(c1ccc(Cl)cc1)N1CCN(c2ccc([N+](=O)[O-])c3ncccc23)CC1 [CPNQ, 5-[4-(4-Chlorobenzoyl)-1-piperazinyl]-8-nitroquinoline]",EC50,RyR1; [Ca2+] 30 nM,20 nM
same,maximum inhibitory effect on [3H]ryanodine binding,RyR1,approximately 30%
same,effect on [3H]ryanodine binding to RyR1,RyR1,only slightly affected
same,EC50,RyR2; [Ca2+] 30 nM,20 nM
same,effect on [3H]ryanodine binding to RyR2,RyR2; 30 nM Ca2+,inhibitory trend
same,effect on [3H]ryanodine binding to RyR2,RyR2; 30 μM Ca2+,did not significantly alter
same,ΔFLT,mouse RyR2 NTR; AC-NTR biosensor,≈ 0.35 ns
same,EC50,mouse RyR2 NTR; [1],1300 nM
"CN(C)c1ccccc1CN1CCCN(Cc2ccccc2N(C)C)C1c1ccncc1 [GANT61, 2-[[3-[[2-(dimethylamino)phenyl]methyl]-2-pyridin-4-yl-1,3-diazinan-1-yl]methyl]-N,N-dimethylaniline]",EC50,RyR1; [Ca2+] 30 nM,4 nM
same,EC50,"RyR1; [Ca2+], 30 µM",9400 nM
same,maximum inhibitory effect on [3H]ryanodine binding,RyR1,~50%
same,effect on [3H]ryanodine binding to RyR1,RyR1,gradual inhibition at concentrations >1 μM
same,EC50,RyR2; [Ca2+] 30 nM,4 nM
same,EC50,"RyR2; [Ca2+], 30 µM",17300 nM
same,effect on [3H]ryanodine binding to RyR2,RyR2; 30 μM Ca2+,inhibitor at concentration >1 μM
same,EC50,mouse RyR2 NTR; [1],15800 nM
same,saturation of FRET dose-response,mouse RyR2 NTR,did not reach saturation within the tested concentration range
"Nc1ccc(-c2nc3ccc(-c4nc5ccc(N)cc5[nH]4)cc3[nH]2)cc1 [Ro 90-7501, 2'-(4-Aminophenyl)-1H,1'H-2,5'-bibenzimidazol-5-amine]",effect on RyR,RyR,inhibitory
same,EC50,"mouse RyR2 NTR; hits that increased FLT, read-out: EC50 (FRET dose-response)",< 1000 nM
"CSc1c(C)c(SC)n2ccncc12 [oltipraz M2, 7-Methyl-6,8-bis(methylthio)-pyrrolo[1,2-a]pyrazine]",EC50,RyR1; [Ca2+] 30 nM,5 nM
same,maximum inhibitory effect on [3H]ryanodine binding,RyR1,~50%
same,effect on [3H]ryanodine binding to RyR1,RyR1,only slightly affected
same,effect on [3H]ryanodine binding to RyR2,RyR2; 30 nM Ca2+,almost no effect
same,effect on [3H]ryanodine binding to RyR2,RyR2; 30 μM Ca2+,did not significantly alter
same,EC50,mouse RyR2 NTR; [1],21700 nM
same,saturation of FRET dose-response,mouse RyR2 NTR,did not reach saturation within the tested concentration range
"C=CC[C@@H]1/C=C(\C)C[C@H](C)C[C@H](OC)[C@H]2O[C@@](O)(C(=O)C(=O)N3CCCC[C@H]3C(=O)O[C@H](/C(C)=C/[C@@H]3CC[C@@H](O)[C@H](OC)C3)[C@H](C)[C@@H](O)CC1=O)[C@H](C)C[C@@H]2OC [tacrolimus, (3S,4R,5S,8R,9E,12S,14S,15R,16S,18R,19R,26aS)-5,19-dihydroxy-3-{(1E)-1-[(1R,3R,4R)-4-hydroxy-3-methoxycyclohexyl]prop-1-en-2-yl}-14,16-dimethoxy-4,10,12,18-tetramethyl-8-(prop-2-en-1-yl)-5,6,8,11,12,13,14,15,16,17,18,19,24,25,26,26a-hexadecahydro-3H-15,19-epoxypyrido[2,1-c][1,4]oxazacyclotricosine-1,7,20,21(4H,23H)-tetrone]",effect on RyR,RyR,activatory
same,ΔFLT,mouse RyR2 NTR; AC-NTR biosensor,≈ 0.1 ns
CC/C(=C(\c1ccccc1)c1ccc(OCCN(C)C)cc1)c1ccccc1 [tamoxifen],decrease of donor-only FLT as share of the FLT change in the donor-acceptor sample,mouse RyR2 NTR,> 50%
"CO[C@H]1C[C@@H]2CC[C@@H](C)[C@@](O)(O2)C(=O)C(=O)N2CCCC[C@H]2C(=O)O[C@H]([C@H](C)C[C@@H]2CC[C@@H](OC(=O)C(C)(CO)CO)[C@H](OC)C2)CC(=O)[C@H](C)/C=C(\C)[C@@H](O)[C@@H](OC)C(=O)[C@H](C)C[C@H](C)/C=C/C=C/C=C/1C [temsirolimus, (1R,2R,4S)-4-{(2R)-2-[(3S,6R,7E,9R,10R,12R,14S,15E,17E,19E,21S,23S,26R,27R,34aS)-9,27-dihydroxy-10,21-dimethoxy-6,8,12,14,20,26-hexamethyl-1,5,11,28,29-pentaoxo-1,4,5,6,9,10,11,12,13,14,21,22,23,24,25,26,27,28,29,31,32,33,34,34a-tetracosahydro-3H-23,27-epoxypyrido[2,1-c][1,4]oxazacyclohentriacontin-3-yl]propyl}-2-methoxycyclohexyl 3-hydroxy-2-(hydroxymethyl)-2-methylpropanoate]",EC50,"mouse RyR2 NTR; read-out: EC50 (FRET dose-response), hits that increased FLT",< 1000 nM
